From PubChem BioAssay (NCI)
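Each compound was tested at five concentrations against cells in 96-well plates for 48 hours. Definition used: TGI = concentration required for complete inhibition of growth.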

Experiments:
Assay in all cases: NCI-60 cell line screen, 48 h
[1] = tested on: 786-0 renal
[2] = tested on: CAKI-1 renal
[3] = tested on: PC-3 prostate
[4] = tested on: NCI-H226 lung
[5] = tested on: RPMI-8226 leukemia
[6] = tested on: EKVX NSCLC
[7] = tested on: UACC-257 melanoma
[8] = tested on: NCI-H23 lung
[9] = tested on: MOLT-4 leukemia
[10] = tested on: CCRF-CEM leukemia
[11] = tested on: DU-145 prostate
[12] = tested on: A498 renal
[13] = tested on: HT29 colon
[14] = tested on: HL-60(TB) leukemia
[15] = tested on: MDA-N
[16] = tested on: SNB-19 CNS
[17] = tested on: COLO 205 colon
[18] = tested on: SN12C renal
[19] = tested on: OVCAR-3 ovarian
[20] = tested on: KM12 colon
[21] = tested on: NCI-H460 lung
[22] = tested on: OVCAR-8 ovarian
[23] = tested on: SF-539 CNS
[24] = tested on: RXF 393 renal
[25] = tested on: OVCAR-5 ovarian
[26] = tested on: SK-MEL-2 melanoma
[27] = tested on: SW-620 colon
[28] = tested on: HCT-116 colon
[29] = tested on: IGROV1 ovarian
[30] = tested on: HOP-62 NSCLC
[31] = tested on: SNB-75 CNS
[32] = tested on: SK-OV-3 ovarian
[33] = tested on: OVCAR-4 ovarian
[34] = tested on: SK-MEL-5 melanoma
[35] = tested on: TK-10 renal
[36] = tested on: MCF7 breast
[37] = tested on: HCT-15 colon
[38] = tested on: SR leukemia
[39] = tested on: K-562 leukemia
[40] = tested on: ACHN renal
[41] = tested on: MALME-3M melanoma
[42] = tested on: UO-31 renal
[43] = tested on: M14 melanoma
[44] = tested on: NCI-H522 lung
[45] = tested on: HS 578T breast
[46] = tested on: SK-MEL-28 melanoma
[47] = tested on: SF-295 CNS
[48] = tested on: U251 CNS
[49] = tested on: HOP-92 NSCLC
[50] = tested on: LOX IMVI melanoma
[51] = tested on: A549 NSCLC
[52] = tested on: SF-268 CNS
[53] = tested on: BT-549 breast
[54] = tested on: T-47D breast
[55] = tested on: NCI/ADR-RES ovarian
[56] = tested on: HCC-2998 colon
[57] = tested on: MDA-MB-231 breast
[58] = tested on: MDA-MB-435
[59] = tested on: UACC-62 melanoma

Measured: TGI

CCC(Sc1cc(Cl)c(C)cc1S(=O)(=O)Nc1nc(N)nc(N(C)C)n1)C(=O)O (centres undefined)
> 10 µM: [1] | [2] | [3] | [4] | [5] | [6] | [7] | [8] | [9] | [10] | [11] | [12] | [13] | [14] | [15] | [16] | [17] | [18] | [19] | [20] | [21] | [22] | [23] | [24] | [25] | [26] | [27] | [28] | [29] | [30] | [31] | [32] | [33] | [34] | [35] | [36] | [37] | [38] | [39] | [40] | [41] | [42] | [43] | [44] | [45] | [46] | [47] | [48] | [49] | [50] | [51] | [52] | [53] | [54] | [55] | [56]

O=C1c2cccc3cc([N+](=O)[O-])cc(c23)C(=O)N1CCCN1CCN(CCCNc2ccc3ncn4c5ccccc5c(=O)c2c34)CC1
0.173 µM: [22]
0.0864 µM: [55]
0.0871 µM: [23]
5.67 µM: [12]
> 19.9 µM: [11]
0.0785 µM: [43]
0.00861 µM: [48]
5 µM: [10]
> 29 µM: [26]
> 25.5 µM: [46]
> 17.1 µM: [3]
0.0361 µM: [53]
1.74 µM: [30]
0.00674 µM: [2]
< 0.005 µM: [4] | [13] | [36]
> 50 µM: [5] | [6] | [7] | [9] | [16] | [21] | [27] | [58] | [33] | [37] | [49] | [51] | [59]
0.62 µM: [57]
0.579 µM: [15]
0.187 µM: [31]
> 17.2 µM: [19]
8.75 µM: [45]
> 20 µM: [32]
16.1 µM: [52]
> 16.9 µM: [25]

COc1ccc(Nc2nnc(CCCCCCCCc3nnc(Nc4ccc(OC)cc4)o3)o2)cc1
> 100 µM: [1] | [2] | [3] | [4] | [6] | [7] | [8] | [9] | [10] | [11] | [12] | [13] | [14] | [15] | [16] | [17] | [18] | [19] | [20] | [57] | [21] | [22] | [23] | [24] | [25] | [26] | [27] | [28] | [29] | [30] | [58] | [31] | [32] | [33] | [34] | [35] | [36] | [37] | [39] | [40] | [41] | [42] | [43] | [44] | [46] | [47] | [48] | [49] | [50] | [51] | [52] | [53] | [55] | [56]

COc1ccc2cc(Oc3ccc(Cl)cc3)c(=O)oc2c1
> 100 µM: [1] | [2] | [3] | [4] | [5] | [6] | [7] | [8] | [9] | [10] | [11] | [12] | [13] | [14] | [15] | [16] | [18] | [19] | [20] | [57] | [21] | [22] | [23] | [24] | [25] | [27] | [28] | [29] | [30] | [31] | [33] | [34] | [35] | [36] | [37] | [38] | [39] | [40] | [41] | [42] | [43] | [44] | [45] | [46] | [47] | [49] | [50] | [51] | [52] | [53] | [54]
